Laboratory results from patent US8536332B2, “Modulating signal transduction pathways with substituted pyridol [2,3-b] pyrazines” (Aeterna Zentaris GmbH, priority 2007, dated 2013).

melting point [°C]	Structure (SMILES)
225	CCNC(=S)Nc1cnc2ccc(Nc3ccc(OC)c(Cl)c3)nc2n1 [Compound 202, 1-[6-(3-Chloro-4-methoxy-phenylamino)-pyrido[2,3-b]pyrazin-3-yl]-3-ethyl-thiourea]
240 to 241	CCNC(=O)Nc1cnc2ccc(-c3cc(C)c(OC)c(C)c3)nc2n1 [Compound 586, 1-Ethyl-3-[6-(4-methoxy-3,5-dimethyl-phenyl)-pyrido[2,3-b]pyrazin-3-yl]-urea]
166	CCNC(=S)Nc1cnc2ccc(Nc3ccc(O)c(OC)c3)nc2n1 [Compound 203, 1-Ethyl-3-[6-(4-hydroxy-3-methoxy-phenylamino)-pyrido[2,3-b]pyrazin-3-yl]-thiourea]
> 250	CCNC(=O)Nc1cnc2ccc(-c3ccc(C(C)=O)s3)nc2n1 [Compound 183, 1-[6-(5-Acetyl-thiophen-2-yl)-pyrido[2,3-b]pyrazin-3-yl]-3-ethyl-urea]
247 to 249	CNC(=O)Nc1cnc2ccc(-c3cc(Cl)c(O)c(Cl)c3)nc2n1 [Compound 557, 1-[6-(3,5-Dichloro-4-hydroxy-phenyl)-pyrido[2,3-b]pyrazin-3-yl]-3-methyl-urea]
232	CCNC(=S)Nc1ccc2ncc(Nc3ccccc3OC)nc2n1 [Compound 332, 1-Ethyl-3-[3-(2-methoxy-phenylamino)-pyrido[2,3-b]pyrazin-6-yl]-thiourea]
257 to 259	COc1cc(-c2ccc3ncc(NC(=O)Nc4ccc5sccc5c4)nc3n2)ccc1O [Compound 609]
228	COc1cc(Nc2cnc3ccc(NC(=S)NCc4ccco4)nc3n2)cc(OC)c1OC [Compound 708, 1-Furan-2-ylmethyl-3-[3-(3,4,5-trimethoxy-phenylamino)-pyrido[2,3-b]pyrazin-6-yl]-thiourea]
324 to 329	CCNC(=O)Nc1ccc2ncc(Nc3ccc(Cl)c(C(=O)O)c3)nc2n1 [Compound 434, 2-Chloro-5-[6-(3-ethyl-ureido)-pyrido[2,3-b]pyrazin-3-ylamino]-benzoic acid]
262	CCNC(=O)Nc1cnc2ccc(-c3ccc(OC(F)(F)F)c(F)c3)nc2n1 [Compound 640, 1-Ethyl-3-[6-(3-fluoro-4-trifluoromethoxy-phenyl)-pyrido[2,3-b]pyrazin-3-yl]-urea]
262 to 263	COc1ccc(-c2ccc3ncc(NC(=O)Nc4ccc(N(C)C)cc4)nc3n2)cc1OC [Compound 569, 1-[6-(3,4-Dimethoxy-phenyl)-pyrido[2,3-b]pyrazin-3-yl]-3-(4-dimethylamino-phenyl)-urea]
255	CCNC(=O)Nc1ccc2ncc(Nc3cc(C(C)(C)C)ccc3O)nc2n1 [Compound 336, 1-[3-(5-tert-Butyl-2-hydroxy-phenylamino)-pyrido[2,3-b]pyrazin-6-yl]-3-ethyl-urea]
214 to 217	COc1cc(-c2ccc3ncc(NC(=O)Nc4cccc(-n5cccc5)c4)nc3n2)ccc1O [Compound 619, 1-[6-(4-Hydroxy-3-methoxy-phenyl)-pyrido[2,3-b]pyrazin-3-yl]-3-(3-pyrrol-1-yl-phenyl)-urea]
214 to 216	CCN(CC)C(=O)Nc1cnc2ccc(-c3ccc(O)c(OC)c3)nc2n1 [Compound 632, 1,1-Diethyl-3-[6-(4-hydroxy-3-methoxy-phenyl)-pyrido[2,3-b]pyrazin-3-yl]-urea]
265	CCNC(=S)Nc1ccc2ncc(Nc3ccc(F)c(F)c3)nc2n1 [Compound 433, 1-[3-(3,4-Difluoro-phenylamino)-pyrido[2,3-b]pyrazin-6-yl]-3-ethyl-thiourea]
197 to 200	COc1cc(Nc2cnc3ccc(NC(=S)NCCc4ccccc4)nc3n2)cc(OC)c1OC [Compound 699, 1-Phenethyl-3-[3-(3,4,5-trimethoxy-phenylamino)-pyrido[2,3-b]pyrazin-6-yl]-thiourea]
265 to 267	COc1ccc(-c2ccc3ncc(NC(=O)Nc4c(C)noc4C)nc3n2)cc1OC [Compound 573, 1-[6-(3,4-Dimethoxy-phenyl)-pyrido[2,3-b]pyrazin-3-yl]-3-(3,5-dimethyl-isoxazol-4-yl)-urea]
289	CCNC(=S)Nc1ccc2ncc(Nc3ccc4ccccc4c3)nc2n1 [Compound 168, 1-Ethyl-3-[3-(naphthalen-2-ylamino)-pyrido[2,3-b]pyrazin-6-yl]-thiourea]

The next lines start with the compound.

Structure (SMILES)	melting point [°C]
CCNC(=O)Nc1ccc2ncc(-c3cc(Cl)cc(Cl)c3)nc2n1 [Compound 90, 1-[3-(3,5-Dichloro-phenyl)-pyrido[2,3-b]pyrazin-6-yl]-3-ethyl-urea]	298 to 305
CCNC(=O)Nc1ccc2ncc(-c3ccc(C)c(C)c3)nc2n1 [Compound 142, 1-[3-(3,4-Dimethyl-phenyl)-pyrido[2,3-b]pyrazin-6-yl]-3-ethyl-urea]	247 to 249
CCNC(=O)Nc1ccc2ncc(-c3cccc(Cl)c3Cl)nc2n1 [Compound 108, 1-[3-(2,3-Dichloro-phenyl)-pyrido[2,3-b]pyrazin-6-yl]-3-ethyl-urea]	> 350
CCNC(=O)Nc1ccc2ncc(-c3ccc(NC(C)=O)c(OC)c3)nc2n1 [Compound 77, N-{4-[6-(3-Ethyl-ureido)-pyrido[2,3-b]pyrazin-3-yl]-2-methoxy-phenyl}-acetamide]	> 300
CCNC(=O)Nc1ccc2ncc(-c3ccccc3C)nc2n1 [Compound 105, 1-Ethyl-3-(3-o-tolyl-pyrido[2,3-b]pyrazin-6-yl)-urea]	218 to 220
CCNC(=O)Nc1ccc2ncc(-c3ccn[nH]3)nc2n1 [Compound 52, 1-Ethyl-3-[3-(2H-pyrazol-3-yl)-pyrido[2,3-b]pyrazin-6-yl]-urea]	218 to 220
COc1cc(-c2ccc3ncc(NC(=O)NCCc4ccccc4)nc3n2)ccc1O [Compound 26, 1-[6-(4-Hydroxy-3-methoxy-phenyl)-pyrido[2,3-b]pyrazin-3-yl]-3-phenethyl-urea]	235 to 237
CCNC(=O)Nc1ccc2ncc(-c3cc(Cl)cc(C)c3F)nc2n1 [Compound 96, 1-[3-(5-Chloro-2-fluoro-3-methyl-phenyl)-pyrido[2,3-b]pyrazin-6-yl]-3-ethyl-urea]	258 to 259
CCNC(=O)Nc1ccc2ncc(-c3cccc(C(=O)OCC)c3)nc2n1 [Compound 119, 3-[6-(3-Ethyl-ureido)-pyrido[2,3-b]pyrazin-3-yl]-benzoic acid ethyl ester]	222 to 223
CCNC(=O)Nc1cnc2ccc(-c3ccc(OC)c(OC)c3)nc2n1 [Compound 22, 1-[6-(3,4-Dimethoxy-phenyl)-pyrido[2,3-b]pyrazin-3-yl]-3-ethyl-urea]	> 235
CCNC(=O)Nc1ccc2ncc(-c3cccc(SC)c3)nc2n1 [Compound 117, 1-Ethyl-3-[3-(3-methylsulfanyl-phenyl)-pyrido[2,3-b]pyrazin-6-yl]-urea]	221 to 224
O=C(Nc1ccccc1)Nc1cnc2ccc(Nc3ccccc3)nc2n1 [Compound 14, 1-Phenyl-3-(6-phenylamino-pyrido[2,3-b]pyrazin-3-yl)-urea]	251
CCNC(=S)Nc1ccc2ncc(Nc3cc(Cl)c(O)c(Cl)c3)nc2n1 [Compound 166, 1-[3-(3,5-Dichloro-4-hydroxy-phenylamino)-pyrido[2,3-b]pyrazin-6-yl]-3-ethyl-thiourea]	278
